{"source": "patent US20160318844A1", "about": "“PROSTACYCLIN COMPOUNDS, COMPOSITIONS AND METHODS OF USE THEREOF” (Insmed Incorporated, priority 2015, published 2016)", "key": {"[1]": {"assay": "Treprostinil alkyl ester conversion to treprostinil in dog lung tissue homogenate", "type": "in vitro ADME", "conditions": "37° C.", "procedure": "(§1) Here, data were calculated based on fit of exponential increase to the maximum (experiments performed in duplicate). The results of this study are provided below in Table 2A and FIG. 37. […] In this experiment, treprostinil alkyl esters were incubated for 4 hours at a final concentration of 200 nM in 1 mL of tissue homogenate prepared in water and normalized to 10 mg/mL of protein.\n(§2) C12-TR was incubated for 4 hours at a final concentration of 200 nM in 1 mL of tissue homogenate prepared in water and normalized to 10 mg/mL of protein. Both FIG. 37 experiments (eft and right graphs) were performed in duplicate and the lines represent nonlinear exponential regression assuming 1 phase decay. Table 2A. Rate of treprostinil alkyl ester conversion in the presence of rat, dog or monkey lung tissue homogenate."}, "[2]": {"assay": "Treprostinil alkyl ester conversion to treprostinil in monkey lung tissue homogenate", "type": "in vitro ADME", "conditions": "37° C.", "procedure": "as §1, §2"}, "CHO-K1 cells": {"tested_on": "CHO-K1 cells", "assay": "CHO-K1 cell proliferation assay (Presto Blue)", "conditions": "for Effect on cell proliferation, CHO-K1 Cells: detectable cell inhibition: Table 9, unformulated alkyl esters, (0.195 μM-25 μM), 48 hour incubation", "procedure": "CHO-K1 cells were harvested when the cell monolayer was 50-90% confluent (use passage 4-11). Media was aspirated out of the flask, and cells were rinsed with 2 mL of F12 media. Next, 1 mL of pre-warmed (37° C.) 0.25% trypsin-EDTA (Life Technologies, Cat#: 25300054) was added, and cells were dislodged from the flask by tapping it on the side. Complete growth media (F12 (Life Technologies, Cat #: 31765092)+10% FBS (Hyclone, Cat #: SH30071.03)+1× Pen-Strep (Life Technologies, cat #15140-122) was then added at a volume of 10 mL. Cells were centrifuged at 250×g for 5 minutes at room temperature, and the media was aspirated. The cell pellet was resuspended in 10 mL complete growth media. Cell number was determined using a hemacytometer. Cells were then seeded at 2000 cells per well of a 96-well plate in 100 μL of complete growth media. The plate was incubated overnight at 37° C. and 5% CO2 in a water-jacketed incubator.\nThe next day, 80 μL of fresh complete media was added to each well, and CHO-K1 cells were challenged with treprostinil compound and composition treatments. The working solutions were prepared at 10× concentration, and following 2 fold serial dilutions, 20 μL aliquots were added per well to arrive at a final 1× concentration. Following a 48 hour incubation at 37° C. and 5% CO2 in a water-jacketed incubator, the inhibitory effect on cell proliferation was determined. Plates were analyzed using 20 μL of Presto Blue reagent (Life Technologies, cat #: A13262) per well. The reagent was mixed, and plates were incubated for 1 hour at 37° C. and 5% CO2 in a waterjacketed incubator. Plates were read using either a CytoFluor Series 4000 (PerSeptive BioSystems) or Synergy Neo microplate reader (BioTek) with emission λ: 590 nm and excitation λ: 560 nm. […]\nCHO-K1 cells were challenged with treprostinil alkyl esters, i.e., TR compounds of Formula (A), having the following R2 groups: […]\nC2, C3, C4, C5, C6, C8, C10 or C12 straight chain alkyl, at dosages ranging from 0.098 μM to 25 μM. Following a 48 hour incubation period, the inhibitory effect on cell proliferation was determined.\nFollowing a 72 hour incubation period, the inhibitory effect on cell proliferation was determined. Following a 48 hour incubation period, the inhibitory effect on cell proliferation was determined. […]"}, "NR8383 cells": {"tested_on": "NR8383 cells", "assay": "NR8383 cell proliferation assay", "type": "cell-based, rat", "conditions": "for Effect on cell proliferation, NR8383 Cells: detectable cell inhibition: Table 9, unformulated alkyl esters, (0.195 μM-25 μM), 72 hour incubation", "procedure": "Rat alveolar NR8383 cells were harvested when the monolayer was 50-90% confluent (use passage 5-11). Because the NR8383 cells include both adherent and non-adherent cells, media was transferred to a 50 mL Falcon tube. To obtain the cells remaining in the flask, 2 mL of plain media was added, and the remaining cells were scraped out of the 75 cm^2 flask with a cell scraper and added to the 50 mL tube. […] SH30071.03)+1×Pen-Strep (Life Technologies, cat #: 15410-122)). Cell number was determined using a hemacytometer. […] Measurements and calculations were made as described above for the CHO-K1 cells. Rat alveolar NR8383 cells were challenged with the same treprostinil derivative compositions: […]"}}, "data": [{"smiles": "CCCCCCCCOC(=O)COc1cccc2c1C[C@H]1C[C@@H](O)[C@H](CC[C@@H](O)CCCCC)[C@H]1C2", "note": "[Compound C8-TR, treprostinil octyl ester]", "values": [{"measurement": "Rate of treprostinil alkyl ester conversion", "setting": "[1]", "result": "49.8 nmOL/h * g of protein"}, {"measurement": "Rate of treprostinil alkyl ester conversion", "setting": "[2]", "result": "17.3 nmOL/h * g of protein"}, {"measurement": "Effect on cell proliferation, CHO-K1 Cells: detectable cell inhibition", "setting": "CHO-K1 cells", "result": 25, "unit": "µM"}, {"measurement": "inhibition of CHO-K1 cell proliferation", "setting": "CHO-K1 cells; unformulated alkyl esters, highest concentration, 48 hour", "result": "showed inhibition of cell proliferation"}, {"measurement": "Effect on cell proliferation, NR8383 Cells: detectable cell inhibition", "setting": "NR8383 cells", "result": "Some detectable cell"}, {"measurement": "inhibition of NR8383 cell proliferation", "setting": "NR8383 cells; unformulated alkyl esters, highest concentration, 72 hour", "result": "showed some inhibition of cell proliferation"}]}, {"smiles": "CCCCCCCCCCCCOC(=O)COc1cccc2c1C[C@H]1C[C@@H](O)[C@H](CC[C@@H](O)CCCCC)[C@H]1C2", "note": "[Compound C12-TR, dodecyl-treprostinil]", "values": [{"measurement": "Rate of treprostinil alkyl ester conversion", "setting": "[1]", "result": "2.2 nmOL/h * g of protein"}, {"measurement": "Rate of treprostinil alkyl ester conversion", "setting": "[2]", "result": "0.6 nmOL/h * g of protein"}, {"measurement": "Effect on cell proliferation, CHO-K1 Cells: detectable cell inhibition", "setting": "CHO-K1 cells", "result": "No detectable cell inhibition"}, {"measurement": "Effect on cell proliferation, NR8383 Cells: detectable cell inhibition", "setting": "NR8383 cells", "result": "No detectable cell inhibition"}]}]}
